These results are taken from patent US20070098685A1, “Methods and kits to treat chronic inflammatory immune diseases by administering a proteasome inhibitor and an interleukin 2 receptor agonist” (priority 2005, published 2007).

Like-named read-outs stand apart in the source and are kept apart here.

Series [1] has as its system blood cell proteasome. Particulars: cited from earlier work.
For series [2] the following is noted: human subjects, 0.4 mg/m^2; cited from earlier work.
Series [3] deals with CD4Th1 T cell mediated inflammation. Description: Delayed type hypersensitivity (DTH) reaction in mice, ear swelling after topical DNFB. The format is in vivo. Particulars: PS 341 0.003 to 0.01 or 0.03 mg/kg co-administered with IL2 (4 ng), FIG. 2. From the text:
FIG. 1 is a drawing of a protocol for induction and assay of delayed-type hypersensitivity (DTH) in mice, as a function of time from left to right. Groups of experimental animals are sensitized on two successive days (at time points indicated as days—5 and —4 in the Figure) by application of 2,4-dinitro-1-fluorobenzene (DNFB; obtained from Sigma, St. Louis, Mo) to footpads, the DNFB dissolved in acetone or acetone/olive oil. After an additional day (at time indicated as day—3) proteasome inhibitor PS 341 and interleukin 2 (IL 2) are administered by intraperitoneal injection (IP). Animals are challenged, elicited for a T cell response, with DNFB topically applied to a target tissue such as ears at a point in time […] after administration, the point in time indicated as day 0. Swelling of the target, i.e., ear marker organ or tissue is measured at subsequent time points, exemplified as day 1 in the Figure.
Groups of experimental and control mice are administered an IL2 dose which is a constant amount (4 ng) in each group with the exception of a group of control animals not administered IL2, and are administered an amount of PS 341 that is varied (from 0.003 to 0.01 or 0.03 mg/kg total weight) in each of the various experimental groups. A control group of mice is administered IL 2 alone (no PS 341). […]
Inflammation was measured by ear swelling after applying topical DNFB. […]

The conditions of series [4]: humans, cited from earlier work.
The conditions of series [5]: cited from earlier work.
The conditions of series [6]: animal models and human subjects; cited from earlier work.
Series [7] in a line: Animal models of immune disease. It counts as in vivo. The note with it: 0.03 mg/kg dose. As to the method:
Without being limited by any particular theory or mechanism, a preferred embodiment of the method is administering systemically a dose of a proteasome inhibitor that gives partial inhibition (20-30%) of red blood cell proteasome activity. In human subjects, a Velcade™ PS-341dose of 0.4 mg/m^2 gave 30% inhibition of blood cell proteasome activity after a single intravenous bolus injection; (Orlowski et al. 2002 J. Clin. Oncol. 20 pp. 4420-27).

Series [8] relates to blood cell proteasome. Particulars: rats, cited from earlier work.
The conditions of series [9]: cited from earlier work. This is another data set of the same source.
The conditions of series [10]: in vivo; cited from earlier work.
The target in series [11] is T1, high affinity IL2 receptor (Homo sapiens, UniProt P01589+P14784+P31785).
T1 sequence (P01589 22-272): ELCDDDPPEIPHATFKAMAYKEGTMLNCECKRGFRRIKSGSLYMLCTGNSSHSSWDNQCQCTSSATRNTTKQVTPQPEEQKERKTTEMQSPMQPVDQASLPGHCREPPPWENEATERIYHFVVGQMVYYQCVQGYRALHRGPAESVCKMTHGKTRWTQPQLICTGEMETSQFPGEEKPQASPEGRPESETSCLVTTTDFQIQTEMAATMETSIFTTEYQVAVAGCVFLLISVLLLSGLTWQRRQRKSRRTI
T1 sequence (P14784 27-551): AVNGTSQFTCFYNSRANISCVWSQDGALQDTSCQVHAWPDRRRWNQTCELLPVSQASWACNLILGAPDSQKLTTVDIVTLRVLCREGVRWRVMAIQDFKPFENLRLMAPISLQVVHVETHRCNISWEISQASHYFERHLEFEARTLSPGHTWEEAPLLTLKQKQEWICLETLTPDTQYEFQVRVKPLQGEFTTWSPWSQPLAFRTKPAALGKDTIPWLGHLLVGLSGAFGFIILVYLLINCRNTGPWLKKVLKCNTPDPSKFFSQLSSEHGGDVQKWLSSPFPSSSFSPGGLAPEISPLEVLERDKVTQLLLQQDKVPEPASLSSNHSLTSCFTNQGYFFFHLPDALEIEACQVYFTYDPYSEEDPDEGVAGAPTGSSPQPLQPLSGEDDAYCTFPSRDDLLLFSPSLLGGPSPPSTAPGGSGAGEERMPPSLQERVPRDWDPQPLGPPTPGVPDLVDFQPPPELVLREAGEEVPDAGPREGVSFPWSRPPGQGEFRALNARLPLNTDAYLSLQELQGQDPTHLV
T1 sequence (P31785 23-369): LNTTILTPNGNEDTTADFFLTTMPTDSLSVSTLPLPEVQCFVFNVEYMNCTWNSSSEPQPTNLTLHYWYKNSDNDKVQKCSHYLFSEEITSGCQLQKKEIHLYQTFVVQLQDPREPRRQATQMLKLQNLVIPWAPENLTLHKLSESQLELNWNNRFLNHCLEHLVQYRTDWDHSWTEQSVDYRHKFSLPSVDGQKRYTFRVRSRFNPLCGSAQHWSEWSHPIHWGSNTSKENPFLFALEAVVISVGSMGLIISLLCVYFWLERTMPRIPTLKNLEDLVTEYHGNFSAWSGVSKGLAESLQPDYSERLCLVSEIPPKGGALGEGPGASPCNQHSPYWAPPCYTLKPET
Particulars: high affinity IL2 receptor on activated T cells; cited from earlier work.

The term half-life denotes the time needed for the level to fall by half in the phase considered. On to `CC(C)C[C@H](NC(=O)[C@H](Cc1ccccc1)NC(=O)c1cnccn1)B(O)O` [PS-341, Pyz Phe boro leu; Pyz2,5 pyraninecarboxylic acid], for which the “inhibition of blood cell proteasome activity” value in the series with blood cell proteasome [1] (human subjects, 0.4 mg/m^2, single intravenous bolus injection) is on record as 30%. For the same compound, the “maximal blood cell proteasome inhibition” value was 80% in the series on blood cell proteasome [1] (humans, 1.38 mg/m^2 intravenous bolus, one hour after dosing) and 80% in the series with blood cell proteasome [8] (0.3 mg/kg intravenous bolus, one hour after dosing). Further, the therapeutic efficacy entry in series [2] was “no significant therapeutic efficacy”. Also, the “inhibition of DTH (ear swelling)” value in series [3] was “increasing inhibition of DTH”. The half-life result in series [4] is “approximately 24 hours”; in series [4] (listed as Velcade), 24 h. Moreover, the adverse events result is on record as “adverse events are observed” in [5] (human studies, doses that are 1 mg/m^2) and “No adverse events were observed” in series [5] (human subjects, doses less than or equal to 0.4 mg/m^2, multiple administration). The serious adverse events entry in series [5] (human subjects, dose that causes partial inhibition of blood proteasome activity) is recorded as “does not cause serious adverse events”. For the same compound, the toxicity result in [6] is “free from substantial toxicity”. Moreover, in [7], the therapeutic effect result was “not effective therapeutically”. Also, the tolerability entry in [7] is recorded as “well tolerated”. Also, the partial proteasome inhibition with blood cell proteasome [8] (0.03 mg/kg intravenous bolus dose) was 20-30%.

By Kd is commonly meant the constant that tells how readily two partners part at equilibrium. Turning to “des ala-1 serine 125 human interleukin 2 [IL2]”, the tolerability result is “well tolerated” in series [9] (intravenous administration for extended periods) and “well tolerated” in series [9] (low doses (<20 million Units), repeated daily dosing for many weeks). For the same compound, the half-life in series [10] is 1.5 h. Moreover, in series [11], the Kd was 0.01 nM.
